Read-outs that look alike come from different tables or passages of the source. Some results are limits rather than exact numbers.

Data set [1] deals with HT-1080 (human lung fibrosarcoma). Put plainly: Cytotoxicity, MTT assay, HT-1080. The settings on record: Homo sapiens, read-out: HT-1080 IC50 (MTT). It is filed as cell-based. An excerpt: (§1) Reduction takes place only when mitochondrial reductase enzymes are active, and therefore, conversion is directly related to the number of viable cells which can be quantified by the absorbance of the solution (between λ = 500 and 600 nm) using a spectrophotometer.
(In general: Tetrazolium dyes change colour on reduction, which living cells bring about.)

In data set [2] the test system is MH-22A (mouse hepatoma). Put plainly: Cytotoxicity, crystal violet (CV) assay, MH-22A. It is filed as cell-based. To be noted: Mus musculus, read-out: MH-22A IC50 (CV). The method, then: (§2) After incubation, the staining solution was removed. The cells were washed 4 times with water.
Data set [3] concerns MH-22A (mouse hepatoma). Put plainly: Cytotoxicity, MTT assay, MH-22A. It counts as cell-based. The settings on record: Mus musculus, read-out: MH-22A IC50 (MTT).
Text: as §1

For data set [4] the following is noted: cited from earlier work.
Data set [5] concerns HT-1080 (human lung fibrosarcoma). Put plainly: Cytotoxicity, crystal violet (CV) assay, HT-1080. To be noted: Homo sapiens, HT-1080, 72 h, read-out: HT-1080 IC50 (CV).
Method: (§3) IC50 is the compound concentration (μg/ml) at which 50% of the cells die. […] CV staining can be used to quantify the total DNA of the remaining population and thus is used to determine the number of live cells based on the concentration of the dye which remains after staining.
(§4) Tumor cell lines HT-1080 (human connective tissue fibrosarcoma, ATCC® CCL-121™) and MH-22A (mouse hepatocarcinoma, ECACC, cat. Nr. 96121721) were used.
(§5) HT-1080 and MH-22A cells were seeded in 96-well plates in Dulbecco's modified Eagle's (DMEM) medium containing 10% fetal bovine serum and 4 mM L-glutamine, without antibiotics, and cultivated for 72 h by exposure to different concentrations of compounds. Cell viability was measured using 3-(4,5-dimethylthiazol-2-yl)-2,5-diphenyltetrazolinium bromide (MTT). In brief, after incubating with compounds, the culture medium was removed and fresh medium with 0.2 mg/ml MTT was added in each well of the plate. After incubation (3 h, 37°C, 5% CO2), the medium with MTT was removed, and 200 μl DMSO was added at once to each sample. The samples were tested at 540 nm on a Tecan Infinite M1000 multiplate reader. The IC50 was calculated using the program GraphPad Prism® 3.0.
(§6) For the CV assay, cells were stained with 0.05% crystal violet (Sigma-Aldrich) in 30% methanol for 20 minutes at room temperature. After incubation, the staining solution was removed. The cells were washed 4 times with water. For dye solubilization, 200 μl of a solubilizing solution (0.1 M citrate buffer, pH 4.2 in 50% ethanol; 1 : 1 v/v) was added. The absorbance of the solution was measured using a Tecan Infinite M1000 multiplate spectrophotometer at a wavelength of 570 nm [21].
Data set [6] deals with NIH3T3 (mouse embryonic fibroblast). Put plainly: Basal cytotoxicity test, Neutral Red Uptake (NRU) assay. The settings on record: for IC50: Mus musculus, NIH3T3, 24 h.
Data set [7] concerns cancer cell lines HT-1080 and MH-22A. Put plainly: in vitro. It counts as cell-based. The protocol: as §2
The nature of data set [8]: Electrochemical oxidation potentials, cyclic voltammetry. It is filed as physicochemical. The settings on record: glassy carbon electrode, dry acetonitrile; for Oxidation potential E^ox: Table 4, vs Ag/Ag+, 0.1 M TBABF4, tested as perchlorates; for electrooxidation potential: cyclic voltammetry. The method, then: A stationary glassy carbon disk electrode (d = 0.5 mm) served as the working electrode, while the counterelectrode was a Pt wire. The oxidation potentials were measured relative to a Ag/Ag^+ reference electrode. Acetonitrile was dried over P2O5 and distilled; the distillate was stored over CaH2 and redistilled just before use. Recrystallized tetrabutylammonium tetrafluoroborate (TBABF4) was used as a supporting electrolyte at 0.1 M concentration.
The electrochemical oxidation of the selected compounds studied in this work was performed by cyclic voltammetry on a stationary glassy carbon electrode in dry acetonitrile; the data is presented in Table 4. The perchlorates of the tested amphiphiles were obtained from the corresponding bromides by treating their abs. MeOH solutions with excess of conc. HClO4 according to the procedure elaborated by Turovska et al..

Data set [9] in a line: Cytotoxicity, crystal violet (CV) assay, MH-22A. It counts as cell-based, mouse. To be noted: mouse; summarises CV and MTT values; read-out: cytotoxicity towards MH-22A cells. The protocol: as §2
Another data set is described as follows: in vitro. It is filed as cell-based. To be noted: human and mouse; summarises both cell lines, CV and MTT; read-out: cytotoxicity on cancer cell lines HT-1080 and MH-22A. The protocol: as §2
The nature of data set [10]: Cytotoxicity, crystal violet (CV) assay, HT-1080. To be noted: human.
Method: as §3, §4, §5, §6
The next data set deals with NIH3T3. Put plainly: in vitro. To be noted: mouse.
The conditions of data set [11]: previous results; cited from earlier work.
Setting [12] is: HT-1080, Table 1, 72 h exposure.
Where [13] appears, read: HT-1080, Table 2, 72 h exposure.

For `CCCCCCCCCCCCOC(=O)C1=C(C[n+]2ccc(N(C)C)cc2)NC(C[n+]2ccc(N(C)C)cc2)=C(C(=O)OCCCCCCCCCCCC)C1c1ccccc1.[Br-].[Br-]` [compound 13, 1,1'-((3,5-Bis((dodecyloxy)carbonyl)-4-phenyl-1,4-dihydropyridine-2,6-diyl)bis(methylene))bis(4-(dimethylamino)pyridin-1-ium) dibromide], the IC50 in [1] (setting [12]) worked out at 3 ± 0.6 µg/mL; in the data set with MH-22A (mouse hepatoma) [2] (Table 1, 72 h exposure), 6 ± 2 µg/mL; with MH-22A (mouse hepatoma) [3] (Table 1, 72 h exposure), 10 ± 3 µg/mL; in data set [5], 10 ± 1 µg/mL; in data set [6] (read-out: NIH3T3 IC50 (NR)), 119 ± 13 µg/mL. In addition, the “antiradical activity (ARA), DPPH free radical scavenging” value in data set [4] (untreated DPPH level designated 100%) is listed as 27%.

Regarding `O=C(OCCCCCCCCCCCC(F)(F)C(F)(F)C(F)(F)C(F)(F)C(F)(F)C(F)(F)C(F)(F)C(F)(F)F)C1=C(C[n+]2ccccc2)NC(C[n+]2ccccc2)=C(C(=O)OCCCCCCCCCCCC(F)(F)C(F)(F)C(F)(F)C(F)(F)C(F)(F)C(F)(F)C(F)(F)C(F)(F)F)C1c1ccccc1` [compound 25], the “cytotoxicity to cancer cell lines HT-1080 and MH-22A (in words)” value (shortened to “cytotoxicity”) in data set [7] is recorded as “undetectable toxicity”. Also, the “toxicity to noncancerous NIH3T3 cells (in words)” value in data set [6] is given as “low toxicity”.

As to `COC(=O)C1=C(C[n+]2ccccc2)N(Cc2ccccc2)C(=O)CC1.[O-][Cl+3]([O-])([O-])[O-]` [compound 29, 1-{[1-Benzyl-3-(methoxycarbonyl)-6-oxo-1,4,5,6-tetrahydropyridin-2-yl]methyl}pyridinium perchlorate], the IC50 in data set [1] (setting [13]) was above 100 µg/mL; with MH-22A (mouse hepatoma) [2] (Table 2, 72 h exposure) it was above 100 µg/mL; in the data set on MH-22A (mouse hepatoma) [3] (Table 2, 72 h exposure), above 100 µg/mL; in data set [5], above 100 µg/mL; in data set [6] (read-out: NIH3T3 IC50 (NR), Table 2, 24 h exposure), 972 ± 27 µg/mL. The “Oxidation potential E^ox” value in [8] turned out to be 2.35 V. The electrooxidation potential in data set [8] was 2.35 V. Moreover, the “cytotoxicity” value in data set [7] is reported as “inert”.

As for `CCOC(=O)C1=C(C)NC(C)=C(C(=O)OCC)C1` [Diludin, reference compound], in [4], the “antiradical activity (ARA)” value was 40%.

For `CCCCCCCCCCCCOC(=O)C1=C(C[n+]2ccccc2)NC(C[n+]2ccccc2)=C(C(=O)OCCCCCCCCCCCC)C1c1ccccc1.[Br-].[Br-]` [compound 10, 1,1'-((3,5-Bis((dodecyloxy)carbonyl)-4-phenyl-1,4-dihydropyridine-2,6-diyl)bis(methylene))bis(pyridin-1-ium) dibromide], the IC50 in [1] (HT-1080, 72 h) is 3 ± 0.3 µg/mL; in data set [9], 3 to 6 µg/mL; in the data set with MH-22A (mouse hepatoma) [2] (72 h), 6 ± 1 µg/mL; with MH-22A (mouse hepatoma) [3] (72 h), 3 ± 0.8 µg/mL; in [5], 3 ± 0.5 µg/mL; in [6] (read-out: NIH3T3 IC50 (NR)), 100 ± 6 µg/mL. The “Oxidation potential E^ox” value in [8] is listed as 1.58 V. Besides, in [8], the electrooxidation potential is 1.57–1.58 V. Further, the IC50 at 72 h in “in vitro” is 3 to 6 µg/mL; in data set [10] it was around 3 µg/mL.

As for `CCOC(=O)C1=C(C[n+]2ccccc2)NC(C[n+]2ccccc2)=C(C(=O)OCC)C1c1ccccc1.[Br-].[Br-]` [compound 1, 1,1'-((3,5-Bis(ethoxycarbonyl)-4-phenyl-1,4-dihydropyridine-2,6-diyl)bis(methylene))-bis(pyridin-1-ium) dibromide], the IC50 in [1] (setting [12]) was above 100 µg/mL; in the data set with MH-22A (mouse hepatoma) [2] (Table 1, 72 h exposure), above 100 µg/mL; in the data set on MH-22A (mouse hepatoma) [3] (Table 1, 72 h exposure) it was above 100 µg/mL; in [5], above 100 µg/mL; in data set [6] (read-out: NIH3T3 IC50 (NR)), above 1000 µg/mL. Also, in the data set on NIH3T3, the “LD50 (calculated, NIH3T3)” value is given as above 2000 mg/kg. Further, the “Oxidation potential E^ox” value in data set [8] is 1.57 V. For the same molecule, in data set [8], the electrooxidation potential is listed as 1.57–1.58 V. Also, in data set [11], the electrochemical oxidation potential was 1.7 V.

On to `CCCCCCCCCCCCOC(=O)C1=C(C[n+]2ccncc2)NC(C[n+]2ccncc2)=C(C(=O)OCCCCCCCCCCCC)C1c1ccccc1` [compound 16, 1,1'-((3,5-Bis((dodecyloxy)carbonyl)-4-phenyl-1,4-dihydropyridine-2,6-diyl)bis(methylne))bis(pyrazin-1-ium) dibromide], for which the IC50 in [1] (setting [12]) was above 100 µg/mL; in the data set on MH-22A (mouse hepatoma) [2] (Table 1, 72 h exposure), above 100 µg/mL; in the data set on MH-22A (mouse hepatoma) [3] (Table 1, 72 h exposure), above 100 µg/mL; in [5] it was above 100 µg/mL; in [6] (read-out: NIH3T3 IC50 (NR), Table 1, 24 h exposure) it was above 1000 µg/mL. Besides, the “cytotoxicity” value in data set [7] is on record as “practically inert”. Further, the “toxicity to noncancerous NIH3T3 cells (in words)” value in data set [6] was “nontoxic”.

Regarding `COC(=O)C1=C(C[n+]2ccccc2)NC(=O)CC1c1ccccc1OC(F)F.[Br-]` (stereo not shown) [compound 28, 1-({4-[2-(Difluoromethoxy)phenyl]-3-(methoxycarbonyl)-6-oxo-1,4,5,6-tetrahydropyridin-2-yl}methyl)pyridinium bromide], the IC50 in [1] (setting [13]) is above 100 µg/mL; in the data set with MH-22A (mouse hepatoma) [2] (Table 2, 72 h exposure), above 100 µg/mL; in the data set with MH-22A (mouse hepatoma) [3] (Table 2, 72 h exposure), above 100 µg/mL; in data set [5] it was above 100 µg/mL; in data set [6] (read-out: NIH3T3 IC50 (NR)) it was 1130 ± 85 µg/mL. For the same molecule, the “cytotoxicity” value in [7] is on record as “inert”.

Source of the values: publication PMC7790557, “Pleiotropic Properties of Amphiphilic Dihydropyridines, Dihydropyridones, and Aminovinylcarbonyl Compounds” (Oxidative Medicine and Cellular Longevity, 2020).
